In brackets after ≈: the same amount, converted by molar mass. Read-outs that look alike come from different tables or passages of the source.
Key:
HCMV AD 169 RV-HG = test: HCMV fluorescence reduction test; assay type: cell-based, human cytomegalovirus
Protocol: The test compounds are used as 50 millimolar (mM) solutions in dimethyl sulfoxide (DMSO). As reference compounds, e.g., Ganciclovir®, Foscarnet®, Cidofovir® or else the compound of Example 9A can be used. One day before the start of the test, 1.5×10^4 human foreskin fibroblasts (NHDF cells)/well are sowed in 200 μl of cell culture medium in the wells B2-G11 of 96-well plates (black with a translucent bottom). The wells at the edge position of each 96-well plate are filled only with 200 μl of medium to avoid edge effects. On the day of the test, the cell culture medium is suctioned off from the wells B2-G11 of each 96-well plate and replaced by 100 μl of virus suspension (multiplicity of infection (MOI): 0.1-0.2). The virus that is used is a recombinant HCMV, which has integrated an expression cassette for the green fluorescence protein (GFP) in the virus genome (HCMV AD 169 RV-HG, E. M. Borst, K. Wagner, A. Binz, B. Sodeik, and M. Messerle, 2008, J. Virol. 82: 2065-2078). After an incubation time of 2 hours at 37° C. and 5% CO2, the virus inoculate is suctioned off, and all wells except for the wells in Column 3 are filled with 200 μl of cell culture medium. Column 2 is not further treated and serves as a virus control. The wells in Column 3 are filled in each case in double determination with 300 μl of test substance (diluted in cell culture medium). The concentration of the respective antiviral substance in Column 3 is ˜ the 27× concentration of the EC50 value that is expected in each case. The test substance in Column 3 is diluted in 8 steps 1:3 over the 96-well plate by in each case 100 μl of a column being transferred into the right column in each case—and being mixed there with the existing 200 μl of cell culture medium. […] Then, the GFP intensity of each well of a 96-well plate is determined by means of a fluorescence reading device (FluoBox; Bayer Technology Services GmbH; Filter settings: GFP, Ex 480 nm, Em 520 nm). The EC50 of an anti-HCMV substance can be determined from the thus obtained measurement values: […]

[1] = Solubility studies in H2O; assay type: physicochemical; conditions: water, thermodynamic from solid, 20 mg in 1 ml of H2O, stirred overnight at 25° C., filtrate analyzed by HPLC
Protocol: 1 ml of H2O each is added, and the HPLC glasses are sealed. The suspensions that are produced are stirred overnight at 25° C. To estimate the amount of dissolved substance, the suspensions are filtered via pipette microfilters, and the filtrates that are obtained are diluted 1:4 and analyzed by means of HPLC. The HPLC analysis was carried out on a […] Luna RP18 (100A)-column with the following dimensions: 5 μm 50×4.6 mm with use of an isocratic mixture of acetonitrile and H2O+0.1% TFA in the ratio 3:7.

[2] = Solubility under simulated conditions in the human stomach; assay type: physicochemical; conditions: aqueous sodium chloride solution (0.2% by weight), pH 1.2 with hydrochloric acid, stirred for 5 hours
Protocol: The samples were then treated as described above, and the amount of free base in solution is determined by means of HPLC.

Hygroscopy = assay type: physicochemical; conditions: approximately 46% relative atmospheric humidity and 24° C., storage time approximately 2 days
Protocol: By storing the salt of Example 1 in pure form at approximately 46% relative atmospheric humidity and 24° C., the hygroscopy of the salts according to the invention was measured.

[3] = Human betaherpesvirus 5, AD169, NHDF, 168 h, read-out: EC50 (GFP-RA), virus strain AD169 RV-HG in NHDF cells, 7 days, GFP fluorescence

SMILES: Nc1nc(O)c2ncn(COC(CO)CO)c2n1 [Ganciclovir, reference compound]
- EC50 (HCMV AD 169 RV-HG; [3]): 3200 nM

SMILES: Cc1ccc(N2CCN(C(=O)c3nc(NC(=O)Nc4ccc(OC(F)(F)F)cc4)cn3C)CC2)nc1 [Example 9A, N-(1-Methyl-2-{[4-(5-methylpyridin-2-yl)piperazin-1-yl]carbonyl}-1H-imidazol-4-yl)-N′-[4-(trifluoromethoxy)phenyl]urea]
- solubility [1]: 4 µg/mL (≈ 7.94 µM)
- Amount of Dissolved Free Base [2]: 0.065 mg/mL
- EC50 (HCMV AD 169 RV-HG; [3]): 1.5 nM

SMILES: CS(=O)(=O)O.CS(=O)(=O)O.Cc1ccc(N2CCN(C(=O)c3nc(NC(=O)Nc4ccc(OC(F)(F)F)cc4)cn3C)CC2)nc1 [Example 1, N-(1-Methyl-2-{[4-(5-methylpyridin-2-yl)piperazin-1-yl]-carbonyl}-1H-imidazol-4-yl)-N′-[4-trifluoromethoxyphenyl]urea dimesylate]
- solubility [1]: > 9700 µg/mL
- weight increase (hygroscopy) (Hygroscopy): less than 0.11%
- Amount of Dissolved Free Base [2]: 0.103 mg/mL
- EC50 (HCMV AD 169 RV-HG; read-out: EC50 (GFP-RA), virus strain AD169 RV-HG in NHDF cells, 7 days, GFP fluorescence, dimesylate): 1.8 nM
